Laboratory results published in patent publication US20250109140A1, “5-[5-(PIPERIDIN-4-YL)THIENO[3,2-C]PYRAZOL-2-YL]INDAZOLE DERIVATIVES AND RELATED COMPOUNDS AS MODULATORS FOR SPLICING NUCLEIC ACIDS AND FOR THE TREATMENT OF PROLIFERATIVE DISEASES” (REMIX THERAPUTICS INC., priority 2022, published 2025).
Like-named read-outs stand apart in the source and are kept apart here.

How the values were obtained:
MYB mRNA = experiment: Splicing RT-qPCR assay, MYB canonical (CJ) and alternative (AJ) junction mRNA; format: cell-based; conditions: Homo sapiens; for EC50: AC50 = 50% response in AJ mRNA increase
How it was run: (§1)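 A673 or K562 cells were exposed for 24 h at 37 °C to an 11-point 3-fold dilution series (top 10 uM final, DMSO ≤0.25%). Lysates were analysed by one-step RT-qPCR for canonical (CJ) and alternative (AJ) junctions. Values were normalized to GAPDH, GUSB or PPIA and to DMSO (ΔΔCt), then converted to percentage response.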

HTT mRNA = experiment: Splicing RT-qPCR assay, HTT canonical (CJ) and alternative (AJ) junction mRNA; format: cell-based; conditions: Homo sapiens; for EC50: AC50 = 50% response in AJ mRNA increase
How it was run: as §1

HiBiT-tagged HTT protein = experiment: HiBiT protein abundance assay, HTT (K562 HiBiT knock-in cells); format: cell-based, human; conditions: 24 hours treatment
Procedure: (§2) Compounds described herein were used to screen for effects on quantitative protein abundance using a HiBit assay system (Promega). Quantitative protein abundance was determined by measuring the protein levels of HiBit-tagged protein targets expressed in cell culture via luminescence using the Nano-Glo HiBiT Lytic Detection System, which uses a split complementation assay format to reconstitute NanoBiT enzyme to generate a luminescent signal. A protein abundance assay was developed such that endogenous protein targets could be modified with the HiBiT peptide tag and their abundance could be assessed after compound treatment. Briefly, K562 cell lines containing a HiBiT-modification were treated with various compounds described herein (e.g., compounds of Formulas (I), or (II)). After treatment for 24 hours, the protein abundance of a specific target was determined by measuring luminescence.
(§3) Cells were maintained in IMDM with 10% FBS. Before the assay, cells were diluted with […] growth media (IMDM+[…] media) and were seeded in a 384-well plate at a density of 10000 cells/well (for each cell line listed in Table 6). Each compound was prepared as a 10-point 3-fold serial dilution in DMSO with the top dose at a final concentration of […] in the well. Unmodified K562 cells were added at the previously specified density with DMSO to serve as an assay baseline and positive control (PC) and DMSO only with the respective modified cell lines was added to the negative control (NC) columns. Final DMSO concentration was kept at or below 0.25%. Treated cell plates were placed in an incubator at 37° C. with […] for 24 hours. After 24 hours, 25 μL of Complete HiflitLytic reagent was added to each well at room temperature (e.g. one plate requiring 10 mL Lytic Buffer, 100 μL LgBiT Protein, 200 μL Lytic Substrate), shaken for 5 minutes at 600 RPM, then left to sit for 10 minutes for signal to stabilize before reading on a Spark Cyto plate reader (Tecan) with a 500 ms measurement time.
(§4) To determine compound effects on protein abundance of each target in Table 6, the percent response for each respective cell line was calculated at each compound concentration as follows:
(§5) For the normalized response at each concentration, a four-parameter logistical regression was fit to the data and the response was interpolated at the 50% value to determine a concentration for protein abundance at 50% (IC50) the untreated control.

[1] = system: K562 (human chronic myelogenous leukemia) cells; experiment: Cell viability, Cell Titer Glo 2.0 assay, K562 cells; format: cell-based; conditions: 72 hours
Procedure: Compounds described herein were screened for toxicity in K562 (human chronic myelogenous leukemia) and SH-SY5Y (human neuroblastoma) cells using a Cell Titer Glo 2.0 assay.
Cells were plated at 500 cells/well (K562 cells) in 45 μL of IMDM supplemented with 10% FBS in a 384-well opaque plate. Wells containing only medium were used as a blank control. Test compounds (e.g., compounds of Formula (I), (III), (IV), (V), or (VI)) were first serially diluted in DMSO then diluted 1:100 with IMDM+10% FBS. The final concentration of DMSO was 0.1% in each well. The cells were incubated for 72 hours at 37° C. and 5% CO2 before assaying with Cell Titer Glo 2.0 reagent.

SMN2 mRNA = experiment: Splicing RT-qPCR gene panel, SMN2 canonical junction (CJ) mRNA; format: cell-based; conditions: Homo sapiens; Table 8; larger gene panel, decrease in CJ mRNA levels
How it was run: as §1

HiBiT-tagged MYB protein = experiment: HiBiT protein abundance assay, MYB (K562 HiBiT knock-in cells); format: cell-based, human; conditions: 24 hours treatment
Procedure: as §2, §3, §4, §5

Target C mRNA = experiment: Splicing RT-qPCR gene panel, Target C canonical junction (CJ) mRNA; format: cell-based; conditions: Homo sapiens; Table 8; larger gene panel, decrease in CJ mRNA levels
How it was run: as §1

Target C = experiment: HiBiT protein abundance assay, Target C (K562 HiBiT knock-in cells); format: cell-based, human; conditions: 24 hours treatment
Procedure: • Promega Nano-Glo HiBiT Lytic Detection System (cat #N3030) • Corning 384-well TC-treated microplates (cat #3570) • Synthego Engineered Cells Knock-In Clones
as §3, §4, §5

[2] = Table 7, RT-qPCR, A673 or K562 cells, 24 hours treatment
[3] = Table 7, IC50 = 50% response in CJ mRNA decrease, RT-qPCR, A673 or K562 cells, 24 hours treatment, read-out: MYB CJ
[4] = Table 8, larger gene panel, decrease in CJ mRNA levels, read-out: MYB CJ IC50
[5] = Table 7, IC50 = 50% response in CJ mRNA decrease, RT-qPCR, A673 or K562 cells, 24 hours treatment, read-out: HTT CJ
[6] = Table 8, larger gene panel, decrease in CJ mRNA levels, read-out: HTT CJ IC50

| Compound | EC50 (MYB mRNA; [2]) [µM] | IC50 (MYB mRNA; [3]) [µM] | IC50 (MYB mRNA; [4]) [µM] | EC50 (HTT mRNA; [2]) [µM] | IC50 (HTT mRNA; [5]) [µM] | IC50 (HTT mRNA; [6]) [µM] | IC50 (HiBiT-tagged HTT protein) [µM] | IC50 [1] [µM] | IC50 (SMN2 mRNA) [µM] | IC50 (HiBiT-tagged MYB protein) [µM] | IC50 (Target C mRNA) [µM] | IC50 (Target C) [µM] |
| --- | --- | --- | --- | --- | --- | --- | --- | --- | --- | --- | --- | --- |
| Cc1cn2nc(-c3cc4cn(C5CCNCC5)nc4s3)cc(C)c2n1 [Compound 162, 4-(5-{2,8-dimethylimidazo[1,2-b]pyridazin-6-yl}thieno[2,3-c]pyrazol-2-yl)piperidine] | 0.1 to 1 | 0.1 to 1 | 0.1 to 1 | 0.1 to 1 | 0.1 to 1 | 0.1 to 1 | < 0.1 | 1 to 10 | < 0.1 | 0.1 to 1 | 0.1 to 1 | 0.1 to 1 |
| Cc1cn2nc(-n3cc4cc(C5CCNCC5)sc4n3)nc2c(C)n1 [Compound 163, 4-(2-{6,8-dimethyl-[1,2,4]triazolo [1,5-a]pyrazin-2-yl}thieno[2,3-c]pyrazol-5-yl)piperidine] | 1 to 10 | 1 to 10 | 1 to 10 | 1 to 10 | 1 to 10 | 1 to 10 | 1 to 10 | 1 to 10 | 1 to 10 | 1 to 10 | 1 to 10 | 1 to 10 |
| Cc1cn2nc(-n3cc4cc(C5CCNCC5)sc4n3)cc2c(C)n1 [Compound 164] | 1 to 10 | 1 to 10 | 1 to 10 | 1 to 10 | 1 to 10 | 1 to 10 | 1 to 10 | 1 to 10 | 1 to 10 | 1 to 10 | 1 to 10 | 1 to 10 |
| Cc1cn2cc(-n3cc4cc(C5CCNCC5)sc4n3)cc(Cl)c2n1 [Compound 165] | 1 to 10 | 0.1 to 1 | 1 to 10 | < 0.1 | < 0.1 | < 0.1 | < 0.1 | 0.1 to 1 | < 0.1 | 0.1 to 1 | 0.1 to 1 | 0.1 to 1 |
| Cc1cn2cc(-n3cc4sc(C5CCNCC5)cc4n3)cc(F)c2n1 [Compound 166, 4-(2-{8-fluoro-2-methylimidazo[1,2-a]pyridin-6-yl}thieno[3,2-c]pyrazol-5-yl)piperidine] | 1 to 10 | 1 to 10 | 1 to 10 | 0.1 to 1 | 0.1 to 1 | 0.1 to 1 | 0.1 to 1 | 1 to 10 | 0.1 to 1 | 0.1 to 1 | 1 to 10 | 0.1 to 1 |
| Cc1nc2c(F)cc(-n3cc4sc(C5CCNCC5)cc4n3)cc2o1 [Compound 167] | 1 to 10 | 1 to 10 | 1 to 10 | 0.1 to 1 | 0.1 to 1 | 0.1 to 1 | 0.1 to 1 | 1 to 10 | 0.1 to 1 | 0.1 to 1 | 1 to 10 | 0.1 to 1 |
| Cc1nc2c(F)cc(-n3cc4sc(C5CCNCC5)cc4n3)cc2s1 [Compound 168] | 1 to 10 | > 10 | 1 to 10 | 1 to 10 | 1 to 10 | 1 to 10 | 1 to 10 | 1 to 10 | 0.1 to 1 | 1 to 10 | > 10 | 1 to 10 |
| Cc1cn2cc(-n3cc4sc(C5CCNCC5)cc4n3)ncc2n1 [Compound 169] | 1 to 10 | 1 to 10 | 1 to 10 | 1 to 10 | 1 to 10 | 1 to 10 | 1 to 10 | 1 to 10 | 1 to 10 | 1 to 10 | 1 to 10 | 1 to 10 |
| Cc1cn2nc(-n3cc4sc(C5CCNCC5)cc4n3)nc2c(C)n1 [Compound 170] | 1 to 10 | 1 to 10 | 1 to 10 | 1 to 10 | 1 to 10 | 1 to 10 | 1 to 10 | 1 to 10 | 1 to 10 | 1 to 10 | 1 to 10 | 1 to 10 |
| Cc1cn2nc(-n3cc4sc(C5CCNCC5)cc4n3)cc2c(C)n1 [Compound 171] | 1 to 10 | 1 to 10 | 1 to 10 | 0.1 to 1 | 0.1 to 1 | 0.1 to 1 | 0.1 to 1 | 1 to 10 | 0.1 to 1 | 0.1 to 1 | 1 to 10 | 0.1 to 1 |
| Cc1cn2cc(-n3cc4sc(C5CCNCC5)cc4n3)cc(Cl)c2n1 [Compound 172] | 0.1 to 1 | 1 to 10 | 0.1 to 1 | 0.1 to 1 | 0.1 to 1 | 0.1 to 1 | 0.1 to 1 | 1 to 10 | 0.1 to 1 | 1 to 10 | 1 to 10 | 0.1 to 1 |
| Cn1cc2c(F)cc(-n3cc4cc(C5CCNCC5)sc4n3)cc2n1 [Compound 174] | > 10 | > 10 | > 10 | > 10 | > 10 | > 10 | 1 to 10 | 1 to 10 | 1 to 10 | 1 to 10 | > 10 | > 10 |
| Cn1cc2c(F)cc(-n3cc4sc(C5CCNCC5)cc4n3)cc2n1 [Compound 175] | > 10 | > 10 | > 10 | > 10 | > 10 | > 10 | 1 to 10 | 1 to 10 | > 10 | 1 to 10 | > 10 | 1 to 10 |
| c1n[nH]cc1-n1cc2sc(C3CCNCC3)cc2n1 [Compound 176] | > 10 | > 10 | > 10 | > 10 | > 10 | > 10 | > 10 | > 10 | > 10 | > 10 | > 10 | > 10 |
| Cn1cc2cc(-c3cc4cn(C5=CCOCC5)nc4s3)cc(F)c2n1 [Compound 177] | > 10 | > 10 | > 10 | > 10 | > 10 | > 10 | > 10 | > 10 | > 10 | > 10 | > 10 | > 10 |
| Cn1cc2cc(-n3cc4sc(C5CCNCC5)cc4n3)c(O)cc2n1 [Compound 178] | 1 to 10 | 1 to 10 | 1 to 10 | 1 to 10 | 1 to 10 | 1 to 10 | 1 to 10 | 1 to 10 | 1 to 10 | 1 to 10 | 1 to 10 | 1 to 10 |
